Patent US6960574B2, “Antagonists of RF-amide neuropeptides” (University of Florida, priority 2002, dated 2005)
Peptide text beside a SMILES is read from it. * marks the point of attachment. Dansyl = CN(C)c1cccc2c(S(=O)(=O)*)cccc12

System: receptor labeled by the radioiodinated analogue of 1 (4, [125I]-YLFQPQRF-NH2); neuropeptide FF receptor
Test: Competitive radioligand binding against 4 ([125I]Y8F-amide)
Settings: mixture-based positional scanning; difference from averaged radioligand displacement of whole library (0); about 80 a.u. = 10-fold change in Ki

Row | Relative Binding Index (RBI) [a.u.] | Compound
1 | 20 | CN(C)c1cccc2c(S(=O)(=O)N[C@@H](CCCNC(=N)N)C(=O)N[C@@H](CCC(N)=O)C(=O)N[C@@H](CCCNC(=N)N)C(N)=O)cccc12 [Dansyl-RQR-amide] (Dansyl-Arg-Gln-Arg-NH2)
2 | 5 | CN(C)c1cccc2c(S(=O)(=O)N[C@@H](CCCNC(=N)N)C(=O)N[C@@H](CCCNC(=N)N)C(=O)N[C@@H](CCCNC(=N)N)C(N)=O)cccc12 [Dansyl-RRR-amide] (Dansyl-Arg-Arg-Arg-NH2)
3 | 27 | CN(C)c1cccc2c(S(=O)(=O)N[C@@H](CCCNC(=N)N)C(=O)N[C@@H](CO)C(=O)N[C@@H](CCCNC(=N)N)C(N)=O)cccc12 [Dansyl-RSR-amide] (Dansyl-Arg-Ser-Arg-NH2)
4 | 12 | C[C@@H](O)[C@H](NC(=O)[C@H](CCCNC(=N)N)NS(=O)(=O)c1cccc2c(N(C)C)cccc12)C(=O)N[C@@H](CCCNC(=N)N)C(N)=O [Dansyl-RTR-amide] (Dansyl-Arg-Thr-Arg-NH2)
5 | 2 | CC(C)[C@H](NC(=O)[C@H](CCCNC(=N)N)NS(=O)(=O)c1cccc2c(N(C)C)cccc12)C(=O)N[C@@H](CCCNC(=N)N)C(N)=O [Dansyl-RVR-amide] (Dansyl-Arg-Val-Arg-NH2)
6 | 16 | CN(C)c1cccc2c(S(=O)(=O)N[C@@H](CCCNC(=N)N)C(=O)N[C@@H](Cc3c[nH]c4ccccc34)C(=O)N[C@@H](CCCNC(=N)N)C(N)=O)cccc12 [Dansyl-RWR-amide] (Dansyl-Arg-Trp-Arg-NH2)
7 | 6 | CN(C)c1cccc2c(S(=O)(=O)N[C@@H](CCCNC(=N)N)C(=O)N[C@@H](Cc3ccc(O)cc3)C(=O)N[C@@H](CCCNC(=N)N)C(N)=O)cccc12 [Dansyl-RYR-amide] (Dansyl-Arg-Tyr-Arg-NH2)
8 | −33 | C[C@H](NC(=O)[C@H](CO)NS(=O)(=O)c1cccc2c(N(C)C)cccc12)C(=O)N[C@@H](CCCNC(=N)N)C(N)=O [Dansyl-SAR-amide] (Dansyl-Ser-Ala-Arg-NH2)
9 | −2 | CN(C)c1cccc2c(S(=O)(=O)N[C@@H](CO)C(=O)N[C@@H](CC(=O)O)C(=O)N[C@@H](CCCNC(=N)N)C(N)=O)cccc12 [Dansyl-SDR-amide] (Dansyl-Ser-Asp-Arg-NH2)
10 | 16 | CN(C)c1cccc2c(S(=O)(=O)N[C@@H](CO)C(=O)N[C@@H](CCC(=O)O)C(=O)N[C@@H](CCCNC(=N)N)C(N)=O)cccc12 [Dansyl-SER-amide] (Dansyl-Ser-Glu-Arg-NH2)
11 | 15 | CN(C)c1cccc2c(S(=O)(=O)N[C@@H](CO)C(=O)N[C@@H](Cc3ccccc3)C(=O)N[C@@H](CCCNC(=N)N)C(N)=O)cccc12 [Dansyl-SFR-amide] (Dansyl-Ser-Phe-Arg-NH2)
12 | 22 | CN(C)c1cccc2c(S(=O)(=O)N[C@@H](CO)C(=O)NCC(=O)N[C@@H](CCCNC(=N)N)C(N)=O)cccc12 [Dansyl-SGR-amide] (Dansyl-Ser-Gly-Arg-NH2)
13 | 11 | CN(C)c1cccc2c(S(=O)(=O)N[C@@H](CO)C(=O)N[C@@H](Cc3c[nH]cn3)C(=O)N[C@@H](CCCNC(=N)N)C(N)=O)cccc12 [Dansyl-SHR-amide] (Dansyl-Ser-His-Arg-NH2)
14 | 23 | CC[C@H](C)[C@H](NC(=O)[C@H](CO)NS(=O)(=O)c1cccc2c(N(C)C)cccc12)C(=O)N[C@@H](CCCNC(=N)N)C(N)=O [Dansyl-SIR-amide] (Dansyl-Ser-Ile-Arg-NH2)
15 | 14 | CN(C)c1cccc2c(S(=O)(=O)N[C@@H](CO)C(=O)N[C@@H](CCCCN)C(=O)N[C@@H](CCCNC(=N)N)C(N)=O)cccc12 [Dansyl-SKR-amide] (Dansyl-Ser-Lys-Arg-NH2)
16 | 8 | CC(C)C[C@H](NC(=O)[C@H](CO)NS(=O)(=O)c1cccc2c(N(C)C)cccc12)C(=O)N[C@@H](CCCNC(=N)N)C(N)=O [Dansyl-SLR-amide] (Dansyl-Ser-Leu-Arg-NH2)
